The values below come from patent publication US7628979B1, “Use of calco oil blue V in bait formulations for marking and controlling subterranean termites” (The United States of America as represented by the …, priority 2005, dated 2009).

For the assay, the system named is C. formosanus. In words: Preliminary laboratory dose-range test of colored bait matrix. Type of assay: in vivo, Coptotermes formosanus. The method, then:
(3) Incorporation of Nutrients. The dry colored alpha cellulose was then mixed with the nutritive liquid (described in U.S. Pat. No. 6,585,991 which is incorporated by reference in its entirety). The nutritive liquid was prepared by weighing 1.25 g lecithin (USB #18240), 0.450 g ergosterol (Sigma #E-6510), 3.75 g ethyl alcohol (Quantum MT #194A31), and 650 g drinking water (Barbe's dairy, West Wego, La.) into a 1 L glass bottle and mixing well using a glass bar. The opening of the bottle was covered with a foam stopper, the bottle cap was loosely placed on top of the stopper, and the stopper covered with foil. After autoclaving for 20 min at 120° C., the bottle was closed tightly and allowed to cool down. Under a laminar flow hood, yeast hydrolysate (ICN Biomed. #103304) was added to the lecithin-containing mixture using a sterile spatula and the mixture was shaken until the yeast hydrolysate was incorporated. The bottle was tightly closed. Using a sterile spatula, 667 ml lecithin-yeast hydrolysate-containing mixture was added to 333 g colored cellulose (at each of the calco oil blue V concentrations) and mixed well. The beaker was covered with foil and plastic to avoid contamination and loss of water. This mixture was stored at 5° C. up to 8 months or at room temperature for at least a month. The mixture was compacted and divided into pieces of about 25-50 g each at colorant concentrations of 50, 100, 225, 250, 500, and 750 ppm respectively. Chitin synthesis inhibitors such as Diflubenzuron (Ensystex) at a given concentration of 50, 100, 175, 200, and 250 ppm were individually weighed, dissolved in minimal amount of acetone (J. T. Baker #9010-03) in a 50 ml plastic tube, and added to the sterile liquid solution.
A concentration of 225 ppm Calco oil blue was effective as bait active ingredient taking a mean time to kill C. formosanus of 2.0 months under laboratory conditions.

Structures are written as SMILES.

Consider `CCCCC(CC)CNc1ccc(NCC(CC)CCCC)c2c1C(=O)c1ccccc1C2=O` (stereo not drawn) [Calco oil blue V, 9,10-anthracenedione, 1,4-bis[(2-ethylhexyl)amino]], for which, under “225 ppm Calco oil blue, laboratory conditions”, the “mean time to kill C. formosanus” value is 2.0 months. In addition, the “repellence to the termites” value is reported as “without any signs of repellence” (225 ppm blue colorant in combination with a chitin synthesis inhibitor (50-175 ppm)) and “Some repellence was observed” (colorant doses higher than 500 ppm). Besides, for the setting “225 ppm blue colorant in combination with a chitin synthesis inhibitor (50-175 ppm), preliminary results”, the “time to induce FS termite mortality” value is no more than 2 months. The Bait consumption entry (concentrations greater than 500 and up to 1000 ppm) is on record as “bait consumption was reduced”. Moreover, the mean killing times entry (concentrations greater than 500 and up to 1000 ppm, compared with 225 ppm) is listed as “not significantly different”.
